# Patent US11497206B2, “Cell cryopreservation protective composition and use thereof” (Tianjin University, priority 2016, dated 2022)
# Structures can show the parent of a compound that is named as a salt.
# Columns and labels:
# sheep blood cells [1] = experiment: Recovery survival rate of blood cells after cryopreservation in liquid nitrogen, hemolysis by microplate reader; assay type: cell-based
# Method: (§1) (1) The respective cell cryopreservation protective solutions (consisting merely of PBS and the effective ingredients for cryopreservation) were prepared according to the following Table 9; (2) about 1×10^7 sheep blood cells or 20 μL rabbit blood was taken and added into about 1.5 mL to 1.8 mL of the cell cryopreservation protective solutions, and the suspensions were put into suitable freezing tubes and directly placed in liquid nitrogen for cryopreservation; (3) after cryopreservation, the cells were thawed and recovered at 37° C.; the survival rates were investigated by using a microplate reader (trademark: TECAN, model: […] 200 PRO) to determine the hemolysis in each sample, and the method for determining hemolysis is as follows: The recovered samples, a sample of PBS and a sample of water were placed in a centrifuge for centrifugation (2000 r/min, 10 min), and thereafter the supernatants were taken; the light transmittance thereof was measured using the microplate reader and the survival rates of the blood cells were calculated.
# rabbit blood = experiment: Recovery survival rate of blood after cryopreservation in liquid nitrogen, hemolysis by microplate reader; assay type: cell-based
# Method: as §1
# sheep blood cells [2] = experiment: Influence of washing operation on survival rate of blood cells after 24 h immersion; settings: sheep blood cells immersed 24 h at 37° C., diluted 2 folds with PBS, washed by centrifugation (FIG. 11)
# [3] = effective ingredient 4 mass % in PBS
# [4] = effective ingredient 6 mass % in PBS
# [5] = effective ingredient 1 mass % in PBS
# [6] = effective ingredient 2 mass % in PBS
# [7] = effective ingredient 3 mass % in PBS
# [8] = effective ingredient 5 mass % in PBS
# [9] = effective ingredient 40 mass % in PBS
Structure (SMILES),Recovery cell survival rate (sheep blood cells [1]; [3]) [%],Recovery cell survival rate (rabbit blood; [4]) [%],Recovery cell survival rate (sheep blood cells [1]; [4]) [%],Recovery cell survival rate (sheep blood cells [1]; [5]) [%],Recovery cell survival rate (sheep blood cells [1]; [6]) [%],Recovery cell survival rate (sheep blood cells [1]; [7]) [%],Recovery cell survival rate (sheep blood cells [1]; [8]) [%],also measured
"C=C(C)C(=O)OCCOP(=O)([O-])OCC[N+](C)(C)C [Phosphorylcholine derivative, 2-(methacryloyloxy)ethyl-2-(trimethylammonio)ethyl phosphate]",80.9,73.9,–,–,–,–,–,–
"C[N+](C)(C)C[C@H](O)CC(=O)[O-] [L-carnitine, 3-carboxy-2-hydroxy-N,N,N-trimethyl-1-propanaminium inner salt (2R)]",–,84.3,84.0,–,–,–,–,–
"C[N+](C)(C)CC(=O)[O-] [Betaine, trimethylammonium acetate]",64.8,85.4,88.1,25.4,44.6,49.3,70.6,Recovery cell survival rate (rabbit blood; [3]): 55.2%; Recovery cell survival rate (rabbit blood; [8]): 75.1%; Recovery cell survival rate (rabbit blood; effective ingredient 15 mass % in PBS): 89.0%; Survival rates of blood cells before and after washing (sheep blood cells [2]): not affected
"C[S+](C)[O-] [DMSO, Dimethyl sulfoxide]",44.4,–,40.8,8.9,24.4,32.4,57.0,–
OCC(O)CO [Glycerol],31.8,–,14.4,21.7,36.5,43.5,8.8,Recovery cell survival rate (sheep blood cells [1]; effective ingredient 10 mass % in PBS): 35.8%; Recovery cell survival rate (sheep blood cells [1]; [9]): 48.0%; Recovery cell survival rate (rabbit blood; [9]): 32.6%
"C=C(C)C(=O)OCC[N+](C)(C)CCCS(=O)(=O)[O-] [Sulfobetaine, 3-[dimethyl-[2-(2-methylprop-2-enoyloxy)ethyl]azaniumyl]propane-1-sulfonate]",75.6,73.6,–,–,–,–,–,–
"C=CC(=O)NCCC[N+](C)(C)CCC(=O)[O-] [Carboxybetaine (meth)acrylamide, (3-acryloylaminopropyl)-(2-carboxyethyl)-dimethylammonium]",71.3,65.1,–,–,–,–,–,–
